In ChEMBL document CHEMBL1201862, “PubChem BioAssay data set” (2004):
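Each compound was tested at five concentrations against cells in 96-well plates for 48 hours. Abbreviation: GI50, concentration required for 50% inhibition of growth.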 The source made the active and inactive calls. Cut-off read from the data, not from the text of the source: active = GI50 up to about 1.1 µM and inactive = higher. Starred links: 1 amine or outer side, 2 acyl side, 3 side chain; linkers in the order of their positions; H or OH if unused. Non-standard residues stand in square brackets, D forms with d. Residues, ends and D or L forms follow the SMILES beside them. *: point of attachment. X47 = CCC(=O)CC1CC(C)CC(C(=O)[*:2])N1[*:1]; X46 = CCCCCCCCC(C)C(=O)*; Aib = CC(C)(N)C(=O)O; X48 = CC(CN(C)CCO)N*

Tests used:
Assay in all cases: inhibition of tumour cell growth, NCI panel, 48 h
SNB-19 = tested on: SNB-19
CAKI-1 = tested on: CAKI-1
KM12 = tested on: KM12
SK-MEL-2 = tested on: SK-MEL-2
OVCAR-5 = tested on: OVCAR-5
IGROV-1 = tested on: IGROV-1
K562 = tested on: K562
CCRF-CEM = tested on: CCRF-CEM
A498 = tested on: A498
SNB-78 = tested on: SNB-78
786-0 = tested on: 786-0
NCI-H522 = tested on: NCI-H522
SF-295 = tested on: SF-295
OVCAR-4 = tested on: OVCAR-4
LXFL 529 = tested on: LXFL 529
M14 = tested on: M14
SN12C = tested on: SN12C
SR = tested on: SR
BT-549 = tested on: BT-549
MDA-MB-435 = tested on: MDA-MB-435

Compound | GI50 (SNB-19) | GI50 (CAKI-1) | GI50 (KM12) | GI50 (SK-MEL-2) | GI50 (OVCAR-5) | GI50 (IGROV-1) | GI50 (K562) | GI50 (CCRF-CEM) | GI50 (A498) | GI50 (SNB-78) | GI50 (786-0) | GI50 (NCI-H522) | GI50 (SF-295) | GI50 (OVCAR-4) | GI50 (LXFL 529) | GI50 (M14) | GI50 (SN12C) | GI50 (SR) | GI50 (BT-549) | GI50 (MDA-MB-435)
Cc1c(CCO)c(O)n2c(nc3ccccc32)c1C#N | 30.3 µM (inactive) | 59 µM (inactive) | > 100 µM (inactive) | 91.6 µM (inactive) | > 100 µM (inactive) | 68.4 µM (inactive) | 99.5 µM (inactive) | 29.4 µM (inactive) | > 100 µM (inactive) | 61 µM (inactive) | 66.4 µM (inactive) | 34.7 µM (inactive) | > 100 µM (inactive) | 39.4 µM (inactive) | 36.6 µM (inactive) | 84.1 µM (inactive) |  |  |  | 
N#C/C(=C\c1cccc(O)c1)C(N)=O | > 100 µM (inactive) | > 100 µM (inactive) | > 100 µM (inactive) | > 100 µM (inactive) | > 100 µM (inactive) | > 100 µM (inactive) | > 100 µM (inactive) | > 100 µM (inactive) | > 100 µM (inactive) | > 100 µM (inactive) | > 100 µM (inactive) | > 100 µM (inactive) | > 100 µM (inactive) | > 100 µM (inactive) | > 100 µM (inactive) | > 100 µM (inactive) | > 100 µM (inactive) |  |  | 
Oc1cc(-c2ccccn2)nc2cc(F)ccc12 | > 100 µM (inactive) |  | 36.1 µM (inactive) |  | > 100 µM (inactive) | > 100 µM (inactive) | 44.9 µM (inactive) |  |  | > 100 µM (inactive) | > 100 µM (inactive) | 25.8 µM (inactive) | > 100 µM (inactive) | > 100 µM (inactive) | > 100 µM (inactive) | 81.1 µM (inactive) | > 100 µM (inactive) | 18.9 µM (inactive) |  | 
CCCCCCCCCCCCCCCCCCNc1ccn(C2OC(COP(=O)(O)OCC3OC(n4ccc(N)nc4=O)C(O)C3O)C(O)C2O)c(=O)n1 (stereo not given) | 39.7 µM (inactive) | 67.6 µM (inactive) | > 89.1 µM (inactive) | > 100 µM (inactive) | 98.6 µM (inactive) | 30.3 µM (inactive) | 65.8 µM (inactive) | 16.1 µM (inactive) | > 100 µM (inactive) |  | 44.7 µM (inactive) | > 37.8 µM (inactive) | > 100 µM (inactive) | > 72.8 µM (inactive) |  | 32 µM (inactive) | 65 µM (inactive) | > 37.6 µM (inactive) | > 49.5 µM (inactive) | > 73.1 µM (inactive)
C=CC(C)CCC(C/C=C(\C)CCCC(C)C)C(=C)CCCC(C)C (stereo not given) | > 100 µM (inactive) | > 100 µM (inactive) | > 100 µM (inactive) | > 100 µM (inactive) | > 100 µM (inactive) | > 100 µM (inactive) | > 100 µM (inactive) | > 100 µM (inactive) | > 100 µM (inactive) |  | > 100 µM (inactive) | > 100 µM (inactive) | > 100 µM (inactive) | > 100 µM (inactive) |  | > 100 µM (inactive) | > 100 µM (inactive) | > 100 µM (inactive) | > 100 µM (inactive) | > 100 µM (inactive)
CC(=O)NNc1nc(C)c(C(/C=C/c2ccc(Cl)cc2)=N\NS(=O)(=O)c2ccc(C)cc2)s1 | > 100 µM (inactive) | > 100 µM (inactive) | > 100 µM (inactive) | > 100 µM (inactive) | > 100 µM (inactive) | > 100 µM (inactive) | > 100 µM (inactive) | > 100 µM (inactive) | > 100 µM (inactive) | > 100 µM (inactive) | > 100 µM (inactive) | > 100 µM (inactive) | > 100 µM (inactive) | > 100 µM (inactive) | > 100 µM (inactive) | > 100 µM (inactive) | > 100 µM (inactive) |  |  | 
CC(=O)O[C@H]1CCC2[C@@H]3CCC4=C(O)C(=O)C(C#N)C[C@]4(C)C3CC[C@@]21C (stereo not given in full) | 45.1 µM (inactive) |  | 35.7 µM (inactive) | 35 µM (inactive) | 75.9 µM (inactive) | 26.2 µM (inactive) | 24.8 µM (inactive) | 30.1 µM (inactive) | 0.361 µM (active) | 47.5 µM (inactive) | 24.4 µM (inactive) |  | 45.9 µM (inactive) | 30.9 µM (inactive) | 35 µM (inactive) | 34 µM (inactive) | 33.5 µM (inactive) |  |  | 
CN1C(=S)CSc2ccccc21 | > 100 µM (inactive) | > 100 µM (inactive) | > 100 µM (inactive) | > 100 µM (inactive) | > 100 µM (inactive) | > 100 µM (inactive) | > 100 µM (inactive) | > 100 µM (inactive) |  | > 100 µM (inactive) | > 100 µM (inactive) | > 100 µM (inactive) |  | > 100 µM (inactive) | > 100 µM (inactive) | > 100 µM (inactive) | > 100 µM (inactive) | > 100 µM (inactive) |  | 
COc1ccc(N2C(=O)[C@@H]3[C@H](C2=O)c2[nH]c4ccccc4c2C2CCC(C(C)(C)C)C[C@@H]23)cc1 (stereo not given in full) | 22.1 µM (inactive) | 27.7 µM (inactive) | 38.7 µM (inactive) | 30.4 µM (inactive) | > 100 µM (inactive) | 34.1 µM (inactive) | 14.5 µM (inactive) | 15.3 µM (inactive) | 26 µM (inactive) | 23.7 µM (inactive) | 14.9 µM (inactive) | 18.5 µM (inactive) | 12.3 µM (inactive) |  | 39.4 µM (inactive) | 29.2 µM (inactive) | 14 µM (inactive) |  |  | 
CC1=C(C(=O)O)N2C(=O)[C@@H](NC(=O)C(c3ccc(O)cc3)N3CSC(=S)N(C(C)C)C3)C2SC1 (stereo not given in full) | > 100 µM (inactive) |  | > 100 µM (inactive) | > 100 µM (inactive) | > 100 µM (inactive) | > 100 µM (inactive) | 57.8 µM (inactive) | 63.8 µM (inactive) | > 100 µM (inactive) | > 100 µM (inactive) | > 100 µM (inactive) | 50.1 µM (inactive) | > 100 µM (inactive) | > 100 µM (inactive) | > 100 µM (inactive) | > 100 µM (inactive) | > 100 µM (inactive) |  |  | 
O=C1N=CN=C2C=CC(Cl)=C(I)C12 (stereo not given) | 47.9 µM (inactive) | 24.3 µM (inactive) | > 100 µM (inactive) | 81.5 µM (inactive) | > 100 µM (inactive) | 33.3 µM (inactive) | > 100 µM (inactive) | > 100 µM (inactive) | 85.3 µM (inactive) |  | > 100 µM (inactive) |  | > 100 µM (inactive) | > 100 µM (inactive) | > 100 µM (inactive) | > 100 µM (inactive) | > 100 µM (inactive) | 91.8 µM (inactive) |  | 
NC(=S)NNC(=O)CCC(=O)Nc1ccc(Cl)cc1Cl | > 100 µM (inactive) | > 100 µM (inactive) | > 100 µM (inactive) | 42.9 µM (inactive) | > 100 µM (inactive) | > 100 µM (inactive) | 17.7 µM (inactive) | > 100 µM (inactive) | > 100 µM (inactive) | > 100 µM (inactive) | > 100 µM (inactive) | > 100 µM (inactive) | > 100 µM (inactive) | > 100 µM (inactive) | 26.1 µM (inactive) | 37.1 µM (inactive) | > 100 µM (inactive) |  |  | 
COC(=O)CCC(NC(=S)N/N=C(\C)c1nccs1)C(=O)OC (stereo not given) | > 100 µM (inactive) |  | > 100 µM (inactive) | > 100 µM (inactive) | 53 µM (inactive) | 73.5 µM (inactive) | 16.2 µM (inactive) |  | > 100 µM (inactive) | > 100 µM (inactive) | 69.3 µM (inactive) | 26.4 µM (inactive) | 87.7 µM (inactive) | 45.8 µM (inactive) | 60.4 µM (inactive) | 41.8 µM (inactive) | > 100 µM (inactive) |  |  | 
CCCCCCCCCCCCOCCCOP(=O)([O-])OCC[N+](C)(C)C | 20.6 µM (inactive) | 13.2 µM (inactive) | 2.95 µM (inactive) | 43.5 µM (inactive) | 21.1 µM (inactive) | 6.14 µM (inactive) | 48.8 µM (inactive) | 21.1 µM (inactive) | 30 µM (inactive) | 25.2 µM (inactive) | 10.8 µM (inactive) | 22.7 µM (inactive) | 35.5 µM (inactive) | 22.1 µM (inactive) |  | 32.8 µM (inactive) | 28.5 µM (inactive) | 11.9 µM (inactive) | 9.04 µM (inactive) | 23.9 µM (inactive)
CCCCCCCCC(C)C(=O)N1CCCC1C(=O)N1C(CC(=O)CC)CC(C)CC1C(=O)NC(C)C(=O)NC(C)(C)C(=O)NC(C)(C)C(=O)NC(C(=O)NC(C)C(=O)NC(C)(C)C(=O)NC(C)(C)C(=O)NC(C)CN(C)CCO)C(C)CC (stereo not given) (X46-P[X47]A[Aib][Aib]IA[Aib][Aib]-X48; configuration not given here) | 0.214 µM (active) | 0.818 µM (active) | 0.142 µM (active) | 0.369 µM (active) | 0.889 µM (active) | 0.221 µM (active) | < 0.01 µM (active) | < 0.0183 µM (active) | 2 µM (inactive) |  | 0.106 µM (active) | < 0.01 µM (active) | < 0.01 µM (active) | < 0.0118 µM (active) |  | 0.593 µM (active) | 0.115 µM (active) | 0.0294 µM (active) | 1.57 µM (inactive) | 1.41 µM (inactive)
NC(=O)c1cc([N+](=O)[O-])cc([N+](=O)[O-])c1 [NITROMIDE] | > 100 µM (inactive) | > 100 µM (inactive) | > 100 µM (inactive) | > 100 µM (inactive) | > 100 µM (inactive) | > 100 µM (inactive) | > 100 µM (inactive) | > 100 µM (inactive) | > 100 µM (inactive) |  | > 100 µM (inactive) | > 100 µM (inactive) | > 100 µM (inactive) | > 100 µM (inactive) | > 100 µM (inactive) | > 100 µM (inactive) | > 100 µM (inactive) | > 100 µM (inactive) |  | 
